Test results reported in patent US20050256134A1, “Use of creatine analogues and creatine kinase modulators for the prevention and treatment of glucose metabolic disorders” (AVICENA GROUP, INC., priority 1995, published 2005).

Tests used:
[1] = test system: female Fisher 344 rats bearing rat mammary adenocarcinoma 13762; test: Effect of creatine compounds on glucose levels in rats bearing tumors (i.v., days 4-8 and 14-18); format: in vivo; details: for Glucose Levels: i.v. days 4-8 and 14-18
Protocol: Two creatine compounds, creatine phosphate and cyclocreatine, were injected intravenously into tumor bearing rats, and the level of glucose in the rats was monitored. Beta guanidino propionic acid, also was administered. […] There was no specific reason for using tumor bearing rats, except convenience because the antitumor activity of these compounds also was being studied. The presence of the tumors should not have any effect on the ability of these compounds to regulate glucose levels. The rats carrying the tumors were described by us previously (see, […] et al., Cancer Chemother. Pharmacol, 35: 411-416, 1995). The schedule and dose selected in these experiments was based on prior experience working with this class of compounds as anticancer or antiviral chemotherapeutic agents. The rat mammary adenocarcinoma 13762 was implanted in the female Fisher 344 rats on day zero. The creatine compounds were administered intravenously on days 4-8 and days 14-18. The amounts used were 1 gm/kg of cyclocreatine, 0.93 gm/kg for beta guanidino propionic acid, and 2.32 gm/kg for creatine phosphate. […] Plasma glucose levels were measured at around 11 a.m., by taking a drop of blood from the animals and testing glucose levels using a commercial kit ([…] bG, Boehringer Mannheim). For animals that were treated with drugs, the treatment was around 9 a.m., and bleeding was also at around 11 a.m. To examine more closely what occurred in the above two experiments, the average readings of glucose levels from experiments one and two were taken in the following time intervals post drug treatment: Days 2-3, Days 4-8, Days 8-12, Days 14-18, Day 15 and Days 19-22.

creatine kinase = details: forward reaction, in vitro and in vivo; cited from earlier work
[2] = test system: Male Zuker diabetic fatty (ZDF-fa/fa) rats; test: Creatine compounds as 1% of the diet, glucose and insulin levels in diabetic rats; format: in vivo, rat
From the text: This preliminary study was initiated to gain insight into the potential regulation of glucose levels by creatine compounds in ZDF rats, a widely studied rodent model of NIDDM (Peterson, Lessons from Animal Diabetes, 1994, Pages 225-230). Male Zuker diabetic fatty (ZDF-fa/fa) rats and their lean Zuker littermates (ZDF +/?) were from Genetic Models, Inc., Indianapolis, Ind. […] Hyperglycemia is initially manifested at about 7 weeks of age and all obese rats are fully diabetic by 12 weeks of age (fed blood glucose of greater than 500 mg %). This level of hyperglycemia increases slightly for several weeks thereafter. Between 7 and 10 weeks, blood insulin levels are high but these subsequently drop as the pancreatic beta cells cease to respond to the glucose stimulus. The lean (ZDF/Gmi) rats are the control counterparts of the diabetic animals. These rats have the same genetics as the obese animals except for the obesity trait. No phenotypic differences have been observed between these rats and other typical lean control rats.
Male Zuker diabetic fatty (ZDF-fa/fa) rats and Zuker lean littermates (ZDF +/?) were 12 weeks old when dosing with creatine compounds was initiated. The ZDF-fa/fa rats were completely diabetic. The littermates were the same age. […] Animals were bled regularly throughout the experiment and glucose and insulin levels were determined using standard procedures (Linco RI-13K). […]

SMILES: NC1=NCCN1CC(=O)O [cyclocreatine]
- Glucose Levels ([1]; Example 1): two drops in glucose levels at the time of drug administration
- Glucose Levels ([1]; Example 2 (repeat)): induced a drop in the level of glucose after each administration
- drop in glucose level ([1]; average of experiments one and two, day 15): ≤ 50%
- phosphorylation by creatine kinase (creatine kinase): phosphorylated efficiently
- drop in glucose levels ([2]; obese diabetic animals, vs Day 0, n=3): ~20%
- effect on insulin levels ([2]; obese fatty animals): minimally affected
